Consider 42 compounds from the Kinase Knowledgebase extract (Sharma et al. 2016).

Each structure is given as a SMILES string. Values joined by “and” are separate entries in the source; they are usually repeats but may differ in a detail not shown here. Equal entries are not always repeated.

For assay [1], the target named is EGFR (Human), P00533 [Inhibition of EGFR Dependent Proliferation of HCC827(.Delta.746-750) cells]. Kind of assay: Cell-Based Assay.
Assay [2] concerns the target EGFR (human), P00533 [WT]. The following applies: a431.
Assay [3] has as its target EGFR (Human), P00533 [T790M/L858R]. As to the kind of experiment: Cell-Based Assay. The settings on record: h1975.
Assay [4] has as its target EGFR (Human), P00533 [Assessment of Phosphorylation of EGFR(.Delta.746-750) in HCC827 Cells]. Kind of assay: Cell-Based Assay.
The target in assay [5] is EGFR (human), P00533 [WT]. As to the kind of experiment: Cell-Based Assay. The following applies: a431.
Chain of EGFR (human), P00533 [WT] (P00533 whole entry, looked up): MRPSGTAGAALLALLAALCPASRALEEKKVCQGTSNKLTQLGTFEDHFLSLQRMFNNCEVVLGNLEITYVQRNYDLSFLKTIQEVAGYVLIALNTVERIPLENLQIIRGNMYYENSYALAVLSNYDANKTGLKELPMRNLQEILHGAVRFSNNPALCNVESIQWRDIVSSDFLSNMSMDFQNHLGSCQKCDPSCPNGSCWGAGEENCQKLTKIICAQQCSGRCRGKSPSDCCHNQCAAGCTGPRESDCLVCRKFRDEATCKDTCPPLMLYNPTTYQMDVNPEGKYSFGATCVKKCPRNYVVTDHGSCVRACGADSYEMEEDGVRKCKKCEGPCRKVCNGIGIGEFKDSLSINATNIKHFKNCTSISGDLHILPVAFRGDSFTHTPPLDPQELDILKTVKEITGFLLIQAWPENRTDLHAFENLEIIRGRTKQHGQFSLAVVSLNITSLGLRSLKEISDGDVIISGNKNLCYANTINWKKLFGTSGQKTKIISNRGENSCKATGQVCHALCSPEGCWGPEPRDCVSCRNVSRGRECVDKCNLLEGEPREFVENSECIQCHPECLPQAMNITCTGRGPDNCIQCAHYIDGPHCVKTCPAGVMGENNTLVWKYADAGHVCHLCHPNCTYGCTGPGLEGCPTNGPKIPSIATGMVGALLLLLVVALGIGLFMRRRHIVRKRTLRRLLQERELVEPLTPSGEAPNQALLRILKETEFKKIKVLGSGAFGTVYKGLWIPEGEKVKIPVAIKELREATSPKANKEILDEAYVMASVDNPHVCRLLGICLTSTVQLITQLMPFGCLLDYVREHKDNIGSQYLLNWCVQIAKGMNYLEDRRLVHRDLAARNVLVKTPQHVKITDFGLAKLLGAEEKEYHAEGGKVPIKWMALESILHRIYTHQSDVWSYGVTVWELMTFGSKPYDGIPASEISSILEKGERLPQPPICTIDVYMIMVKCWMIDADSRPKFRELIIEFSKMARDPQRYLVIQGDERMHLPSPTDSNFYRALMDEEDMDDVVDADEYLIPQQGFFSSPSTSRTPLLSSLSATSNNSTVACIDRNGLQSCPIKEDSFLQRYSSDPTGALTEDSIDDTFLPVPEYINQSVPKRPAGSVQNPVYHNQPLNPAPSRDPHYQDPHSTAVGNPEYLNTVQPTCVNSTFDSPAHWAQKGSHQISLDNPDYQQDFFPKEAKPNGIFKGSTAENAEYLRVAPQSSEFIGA
For assay [6], the target named is EGFR (Human), P00533 [T790M/L858R]. As to the kind of experiment: Cell-Based Assay. The settings on record: h1975. The source holds these as a separate data set.
Chain of EGFR (Human), P00533 [T790M/L858R] (P00533 whole entry T790M/L858R, looked up): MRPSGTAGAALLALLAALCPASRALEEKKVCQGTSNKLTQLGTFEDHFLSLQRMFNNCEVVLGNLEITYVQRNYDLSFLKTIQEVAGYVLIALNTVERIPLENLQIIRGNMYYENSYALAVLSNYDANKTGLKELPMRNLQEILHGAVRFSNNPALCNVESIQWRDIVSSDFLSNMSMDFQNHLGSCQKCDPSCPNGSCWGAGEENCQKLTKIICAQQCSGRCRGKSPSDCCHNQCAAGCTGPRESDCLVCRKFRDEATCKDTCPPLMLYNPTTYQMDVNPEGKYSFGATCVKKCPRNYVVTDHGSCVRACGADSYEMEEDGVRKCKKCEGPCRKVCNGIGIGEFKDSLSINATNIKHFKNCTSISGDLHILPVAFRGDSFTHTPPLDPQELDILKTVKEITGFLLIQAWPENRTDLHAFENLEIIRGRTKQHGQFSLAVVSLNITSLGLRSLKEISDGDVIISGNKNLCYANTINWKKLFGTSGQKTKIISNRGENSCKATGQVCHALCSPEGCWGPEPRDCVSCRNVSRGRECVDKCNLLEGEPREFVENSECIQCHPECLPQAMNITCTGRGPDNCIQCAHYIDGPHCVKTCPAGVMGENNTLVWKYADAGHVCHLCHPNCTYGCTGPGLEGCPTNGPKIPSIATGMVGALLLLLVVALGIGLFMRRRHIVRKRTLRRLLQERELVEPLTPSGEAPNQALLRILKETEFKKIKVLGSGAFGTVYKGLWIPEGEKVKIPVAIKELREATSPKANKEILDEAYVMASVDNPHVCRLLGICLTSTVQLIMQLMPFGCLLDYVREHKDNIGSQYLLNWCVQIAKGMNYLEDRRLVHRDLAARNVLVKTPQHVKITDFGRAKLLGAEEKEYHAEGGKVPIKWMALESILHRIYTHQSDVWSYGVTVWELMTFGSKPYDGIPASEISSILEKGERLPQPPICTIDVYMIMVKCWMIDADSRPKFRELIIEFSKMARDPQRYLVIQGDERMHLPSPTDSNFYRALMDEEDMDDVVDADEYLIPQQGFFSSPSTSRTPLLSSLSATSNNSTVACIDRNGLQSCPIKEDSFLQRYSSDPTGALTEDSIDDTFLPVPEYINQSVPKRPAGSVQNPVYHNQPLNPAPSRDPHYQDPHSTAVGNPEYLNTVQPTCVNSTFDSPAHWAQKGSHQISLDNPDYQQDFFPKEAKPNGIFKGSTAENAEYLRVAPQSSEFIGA

Chain of EGFR (Human), P00533 [Inhibition of EGFR Dependent Proliferation of HCC827(.Delta.746-750) cells] (P00533 whole entry, looked up, stated change not applied): as the sequence (P00533 whole entry, looked up) above
Chain of EGFR (Human), P00533 [Assessment of Phosphorylation of EGFR(.Delta.746-750) in HCC827 Cells] (P00533 whole entry, looked up, stated change not applied): as the sequence (P00533 whole entry, looked up) above

Take `C=CC(=O)Nc1cccc(-n2c(=O)cc(C)c3cnc(Nc4ccc(OCCN(C)C)cc4)nc32)c1`: the IC50 (commonly the midpoint of a concentration-inhibition curve) was 0.017 µM and 0.01 µM in assay [1]; 1.03 µM in assay [2]; 0.009 µM in assay [3].

With `C=CC(=O)Nc1cccc(-n2c(=O)cc(C)c3cnc(Nc4ccc(N(C)CCN(C)C)cc4C)nc32)c1`, the IC50 in assay [1] was 0.124 µM; in assay [2], 1.15 µM; in assay [3] it was 0.009 µM.

For the compound `C=CC(=O)Nc1cccc(-n2c(=O)cc(C)c3cnc(Nc4ccc(C5CCN(C)CC5)cc4)nc32)c1`, the IC50 in assay [1] came to 0.027 µM; in assay [3], 0.011 µM.

Take `C=CC(=O)Nc1cccc(-n2c(=O)cc(C)c3cnc(Nc4ccc(O[C@H]5CCN(C)C5)cc4OC)nc32)c1`: the IC50 in assay [2] was 2.11 µM; in assay [3], 0.0103 µM.

With `C=CC(=O)Nc1cccc(-n2c(=O)cc(C)c3cnc(Nc4cnn(C)c4)nc32)c1`, the IC50 in assay [1] came to 0.077 µM; in assay [2], 16.6 µM; in assay [3], 0.062 µM.

Compound `C=CC(=O)Nc1cccc(-n2c(=O)cc(C)c3cnc(Nc4cccc(F)c4)nc32)c1` yielded an IC50 in assay [3] of 0.714 µM.

In assay [3], `C=CC(=O)Nc1cccc(-n2c(=O)cc(C)c3cnc(Nc4cnn(C(C)C)c4)nc32)c1` registered an IC50 of 0.101 µM.

With `C=CC(=O)Nc1cccc(-n2c(=O)cc(C)c3cnc(Nc4ccc(OCCN(C)C)cc4F)nc32)c1`, the values for the IC50 in assay [1], in assay [2] and in assay [3] were 0.076 µM, 1.33 µM and 0.051 µM, respectively.

With `C=CC(=O)Nc1cccc(-n2c(=O)cc(C)c3cnc(Nc4cc(C)nn4C)nc32)c1`, the IC50 in assay [3] stood at 0.762 µM.

With `C=CC(=O)Nc1cccc(-n2c(=O)c(OC)c(C)c3cnc(Nc4ccc(N5CCN(C)CC5)cc4OC)nc32)c1`, the IC50 in assay [1] came out at 0.041 µM; in assay [2], 1.39 µM; in assay [3], 0.01 µM.

`C=CC(=O)Nc1cccc(-n2c(=O)cc(C)c3cnc(Nc4ccc(C5CCNCC5)cc4)nc32)c1`: in assay [3], the IC50 turned out to be 0.18 µM.

Turning to `C=CC(=O)Nc1cccc(-n2c(=O)cc(C)c3cnc(Nc4ccc(N(C)CCN5CCCC5=O)cc4OC)nc32)c1`, the IC50 is 0.401 µM in assay [1], 4.24 µM in assay [2] and 0.108 µM in assay [3].

Take `C/C=C/C(=O)Nc1cccc(-n2c(=O)cc(C)c3cnc(Nc4ccc(OCCN(C)C)cc4OC)nc32)c1`: the IC50 turned out to be 1.48 µM in assay [1], 24.8 µM in assay [2] and 0.87 µM in assay [3].

Regarding `C=CC(=O)Nc1cccc(-n2c(=O)cc(C)c3cnc(Nc4cn(C)nc4C)nc32)c1`, the values for the IC50 in assay [1], in assay [2] and in assay [3] were 0.022 µM, 1.25 µM and 0.016 µM, respectively.

Take `C=CC(=O)Nc1cccc(-n2c(=O)c(OC)cc3cnc(Nc4ccc(N5CCN(C)CC5)cc4OC)nc32)c1`: the IC50 was 0.061 µM in assay [1], 0.201 µM in assay [2] and 0.272 µM in assay [3].

As for `C=CC(=O)Nc1cccc(-n2c(=O)ccc3cnc(Nc4ccc(N5CCN(C)CC5)cc4OC)nc32)c1`, in assay [4], the IC50 was 0.0034 µM.

As to `C=CC(=O)Nc1cccc(-n2c(=O)cc(C)c3cnc(Nc4ccc(OCCN(C)C)cc4Cl)nc32)c1`, the IC50 is 0.046 µM in assay [1], 0.832 µM in assay [2] and 0.0047 µM in assay [3].

Take `C=CC(=O)Nc1cccc(-n2c(=O)cc(C)c3cnc(Nc4ccc(N(C)CCN(C)C)cc4OC(F)F)nc32)c1`: the IC50 worked out at 0.083 µM in assay [1], 0.884 µM in assay [2] and 0.024 µM in assay [3].

`C=CC(=O)Nc1cccc(-n2c(=O)cc(C)c3cnc(Nc4ccc(N5CCN(C)CC5)cc4OC)nc32)c1`: the IC50 in assay [4] worked out at 0.008 µM.

In assay [3], `C=CC(=O)N1CC[C@H](Cn2c(=O)cc(C)c3cnc(Nc4ccc(N5CCN(C)CC5)cc4OC)nc32)C1` returned an IC50 of 0.175 µM.

On to `C=CC(=O)Nc1cccc(-n2c(=O)cc(C)c3cnc(Nc4cn(C)nc4Cl)nc32)c1`, for which the figures for the IC50 in assay [1], in assay [2] and in assay [3] were 0.03 µM, 2.87 µM and 0.016 µM, respectively.

Take `C=CC(=O)Nc1cccc(-n2c(=O)cc(C)c3cnc(Nc4ccc(N5CCN(C)CC5)c(C)c4)nc32)c1`: the figures for the half-maximal inhibitory concentration (IC50) in assay [1], in assay [2] and in assay [3] were 0.036 µM, 0.653 µM and 0.0058 µM, respectively.

`C=CC(=O)Nc1cccc(-n2c(=O)cc(C)c3cnc(Nc4ccc(N(C)CCO)cc4OC)nc32)c1`: the IC50 was 0.483 µM in assay [1], 1.69 µM in assay [2] and 0.035 µM in assay [3].

For `C=CC(=O)Nc1cccc(-n2c(=O)cc(C)c3cnc(Nc4cn([C@H]5CCN(C)C5)nc4C)nc32)c1`, the figures for the IC50 in assay [1], in assay [2] and in assay [3] were 0.049 µM, 1.28 µM and 0.018 µM, respectively.

As for `C=CC(=O)Nc1cccc(-n2c(=O)cc(C)c3cnc(Nc4ccc(N(C)CCN(C)C)cc4Cl)nc32)c1`, the IC50 in assay [1] was determined as 0.021 µM; in assay [2], 3.1 µM; in assay [3] it was 0.013 µM.

Consider `C=CC(=O)Nc1cccc(-n2c(=O)cc(C)c3cnc(Nc4cn(C5CCN(C)CC5)nc4C)nc32)c1.C=CC(=O)Nc1cccc(-n2c(=O)cc(C)c3cnc(Nc4cnn(C5CCN(C)CC5)c4C)nc32)c1`, for which the figures for the IC50 in assay [1], in assay [2] and in assay [3] were 1.05 µM, 1.82 µM and 0.31 µM, respectively.

Consider `C=CC(=O)Nc1cccc(-n2c(=O)cc(C)c3cnc(Nc4ccc(N(C)CCN(C)C)cc4OC)nc32)c1`, for which the concentration for half-maximal inhibition (IC50) in assay [5] stood at 0.689 µM; in assay [6], 0.0078 µM; in assay [1], 0.022 µM; in assay [4], 0.024 µM; in assay [2], 1.4 µM; in assay [3], 0.008 µM.

As to `C=CC(=O)Nc1cccc(-n2c(=O)cc(C)c3cnc(Nc4cn(C)nc4C(F)(F)F)nc32)c1`, the IC50 in assay [3] was found to be 0.053 µM.

`C=CC(=O)Nc1cccc(-n2c(=O)cc(C)c3cnc(Nc4ccc(N5CCN(C)CC5)c(F)c4)nc32)c1`: the values for the IC50 in assay [1], in assay [2] and in assay [3] were 0.086 µM, 1.26 µM and 0.028 µM, respectively.

`C=CC(=O)Nc1cccc(-n2c(=O)cc(C)c3cnc(Nc4ccc(N5CCN(C(C)=O)CC5)cc4Cl)nc32)c1`: the results for the IC50 in assay [1], in assay [2] and in assay [3] were 0.236 µM, 4.27 µM and 0.009 µM, respectively.

With `C=CC(=O)Nc1cccc(-n2c(=O)cc(C)c3cnc(Nc4ccc(OCCCN(C)C)cc4)nc32)c1`, the IC50 in assay [1] amounted to 0.159 µM; in assay [2], 1.55 µM; in assay [3] it was 0.027 µM.

For `C=CC(=O)Nc1cccc(-n2c(=O)cc(C)c3cnc(Nc4ccc(OCCN(C)C)cc4OC)nc32)c1`, the IC50 in assay [5] worked out at 0.511 µM; in assay [6], 0.004 µM; in assay [1] it was 0.028 µM; in assay [4], 0.017 µM; in assay [2], 2.4 µM; in assay [3] it was 0.004 µM.

`C=CC(=O)Nc1cccc(-n2c(=O)cc(C)c3cnc(Nc4ccnn4CC)nc32)c1` displayed an IC50 in assay [3] of 0.911 µM.

On to `C=CC(=O)Nc1cccc(-n2c(=O)cc(C)c3cnc(Nc4ccc(N5CCC(C(C)(C)O)CC5)cc4)nc32)c1`, for which the IC50 turned out to be 0.401 µM in assay [1], 6.67 µM in assay [2] and 0.176 µM in assay [3].

Take `C=CC(=O)Nc1cccc(-n2c(=O)c(Cc3ccccc3)cc3cnc(Nc4ccc(N5CCN(C)CC5)cc4OC)nc32)c1`: the IC50 came to 0.018 µM in assay [1], 0.25 µM in assay [2] and 0.004 µM in assay [3].

In the case of `C=CC(=O)Nc1cccc(-n2c(=O)ccc3cnc(Nc4ccc(NC5CN(CCF)C5)cc4OC)nc32)c1`, the IC50 in assay [4] was 0.005 µM.

For the compound `C=CC(=O)Nc1cccc(-n2c(=O)cc(C)c3cnc(Nc4ccc(N(C)CCN(C)C)cc4)nc32)c1`, the IC50 in assay [1] came out at 0.023 µM; in assay [3], 0.008 µM.

On to `C=CC(=O)Nc1cccc(-n2c(=O)cc(C)c3cnc(Nc4ccc(N(C)CCN5CCCC5)cc4OC)nc32)c1`, for which the IC50 in assay [1] was found to be 0.272 µM; in assay [2], 1.41 µM; in assay [3], 0.128 µM.

`C/C=C/C(=O)Nc1cccc(-n2c(=O)cc(C)c3cnc(Nc4ccc(N(C)CCN(C)C)cc4OC)nc32)c1`: the figures for the IC50 in assay [1], in assay [2] and in assay [3] were 1.37 µM, 18 µM and 0.336 µM, respectively.

On to `C=CC(=O)Nc1cccc(-n2c(=O)cc(C)c3cnc(Nc4cnn(CCN(C)C)c4)nc32)c1`, for which the IC50 in assay [1] turned out to be 0.305 µM; in assay [3] it was 0.162 µM.

Consider `C=CC(=O)Nc1cccc(-n2c(=O)cc(C)c3cnc(Nc4ccc(OCCOC)cc4)nc32)c1`, for which the IC50 in assay [1] is 0.249 µM; in assay [2] it was 2.41 µM; in assay [3] it was 0.042 µM.

Turning to `C=CC(=O)Nc1cccc(-n2c(=O)ccc3cnc(Nc4cn(C)nc4C)nc32)c1`, the IC50 is 0.002 µM in assay [1] and 0.007 µM in assay [3].
